According to the NIST ThermoML archive (doi:10.1021/je050277k):
Numbers after ± are expanded uncertainties.

O=C1CCCCCN1 [1-aza-2-cycloheptanone]
vapor or sublimation pressure (293.43 K, Crystal, Calculated from knudsen effusion weight loss): 0.000153 ± 9e-06 kPa
vapor or sublimation pressure (298.39 K, Crystal, Calculated from knudsen effusion weight loss): 0.000275 ± 1.7e-05 kPa
vapor or sublimation pressure (302.3 K, Crystal, Transpiration method): 0.00043 ± 3e-05 kPa
vapor or sublimation pressure (303.32 K, Crystal, Calculated from knudsen effusion weight loss): 0.000474 ± 2.9e-05 kPa
vapor or sublimation pressure (305.4 K, Crystal, Transpiration method): 0.00066 ± 4e-05 kPa
vapor or sublimation pressure (306.2 K, Crystal, Transpiration method): 0.0007 ± 4e-05 kPa
vapor or sublimation pressure (308.31 K, Crystal, Calculated from knudsen effusion weight loss): 0.000813 ± 5.1e-05 kPa
vapor or sublimation pressure (308.38 K, Crystal, Calculated from knudsen effusion weight loss): 0.000858 ± 5.4e-05 kPa
vapor or sublimation pressure (309.2 K, Crystal, Transpiration method): 0.00093 ± 6e-05 kPa
vapor or sublimation pressure (312.2 K, Crystal, Transpiration method): 0.00127 ± 8e-05 kPa
vapor or sublimation pressure (313.22 K, Crystal, Calculated from knudsen effusion weight loss): 0.00143 ± 0.00013 kPa
vapor or sublimation pressure (314.7 K, Crystal, Transpiration method): 0.00175 ± 0.00011 kPa
vapor or sublimation pressure (316.7 K, Crystal, Transpiration method): 0.0021 ± 0.00013 kPa
vapor or sublimation pressure (318.09 K, Crystal, Calculated from knudsen effusion weight loss): 0.00235 ± 0.00023 kPa
vapor or sublimation pressure (321.1 K, Crystal, Transpiration method): 0.00327 ± 0.0002 kPa
vapor or sublimation pressure (321.3 K, Crystal, Transpiration method): 0.00365 ± 0.00023 kPa
vapor or sublimation pressure (322.98 K, Crystal, Calculated from knudsen effusion weight loss): 0.00393 ± 0.00041 kPa
vapor or sublimation pressure (323.06 K, Crystal, Calculated from knudsen effusion weight loss): 0.00379 ± 0.0004 kPa
vapor or sublimation pressure (323.9 K, Crystal, Transpiration method): 0.00427 ± 0.00026 kPa
vapor or sublimation pressure (326.3 K, Crystal, Transpiration method): 0.00568 ± 0.00035 kPa
vapor or sublimation pressure (327.93 K, Crystal, Calculated from knudsen effusion weight loss): 0.00636 ± 0.00071 kPa
vapor or sublimation pressure (328 K, Crystal, Calculated from knudsen effusion weight loss): 0.0061 ± 0.00068 kPa
vapor or sublimation pressure (328.3 K, Crystal, Transpiration method): 0.00668 ± 0.00041 kPa
vapor or sublimation pressure (330.2 K, Crystal, Transpiration method): 0.00801 ± 0.00049 kPa
vapor or sublimation pressure (332.89 K, Crystal, Calculated from knudsen effusion weight loss): 0.01 ± 0.0012 kPa
vapor or sublimation pressure (332.93 K, Crystal, Calculated from knudsen effusion weight loss): 0.0105 ± 0.0012 kPa
vapor or sublimation pressure (333.2 K, Crystal, Transpiration method): 0.01064 ± 0.00065 kPa
vapor or sublimation pressure (336.3 K, Crystal, Transpiration method): 0.01422 ± 0.00087 kPa
vapor or sublimation pressure (337.4 K, Crystal, Transpiration method): 0.01727 ± 0.0011 kPa
vapor or sublimation pressure (337.82 K, Crystal, Calculated from knudsen effusion weight loss): 0.0155 ± 0.0019 kPa
vapor or sublimation pressure (339 K, Crystal, Transpiration method): 0.01833 ± 0.0011 kPa
vapor or sublimation pressure (345.2 K, Liquid, Transpiration method): 0.0319 ± 0.002 kPa
vapor or sublimation pressure (345.8 K, Liquid, Transpiration method): 0.0322 ± 0.002 kPa
vapor or sublimation pressure (347.8 K, Liquid, Transpiration method): 0.0376 ± 0.0023 kPa
vapor or sublimation pressure (350.9 K, Liquid, Transpiration method): 0.0457 ± 0.0028 kPa
vapor or sublimation pressure (353.9 K, Liquid, Transpiration method): 0.0564 ± 0.0035 kPa
vapor or sublimation pressure (355.4 K, Liquid, Transpiration method): 0.0612 ± 0.0037 kPa
vapor or sublimation pressure (357 K, Liquid, Transpiration method): 0.071 ± 0.0043 kPa
vapor or sublimation pressure (359.1 K, Liquid, Transpiration method): 0.0758 ± 0.0046 kPa
vapor or sublimation pressure (360.2 K, Liquid, Transpiration method): 0.089 ± 0.0055 kPa
vapor or sublimation pressure (362.1 K, Liquid, Transpiration method): 0.0992 ± 0.0061 kPa
vapor or sublimation pressure (363.1 K, Liquid, Transpiration method): 0.103 ± 0.0063 kPa
vapor or sublimation pressure (364.9 K, Liquid, Transpiration method): 0.1189 ± 0.0073 kPa
vapor or sublimation pressure (366.3 K, Liquid, Transpiration method): 0.1294 ± 0.0079 kPa
vapor or sublimation pressure (369.7 K, Liquid, Transpiration method): 0.16 ± 0.0098 kPa
vapor or sublimation pressure (372.2 K, Liquid, Transpiration method): 0.1866 ± 0.011 kPa
